Results reported in patent publication US8192962B2, “Processes for detecting toxic substances” (Daikin Industries, Ltd., priority 2001, dated 2012).

System: Unknown protein yeast genes
Assay: DNA chip mRNA expression in yeast, unknown protein yeast genes (Table 1)
Type: cell-based, Saccharomyces cerevisiae S288C
Method in brief: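 Untreated cultures served as reference for log-phase S288C yeast given a growth-inhibiting, non-lethal toxicant dose for 2 h at 25° C. in YPD. Gene expression was measured on a whole-genome DNA chip from Cy3/Cy5-labeled cDNA.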

CCCCC[C@H](O)CC(=O)CCc1ccc(O)c(OC)c1 [(13), gingerol]
The level of expressed mRNA in the presence of chemical substance/The level of expressed mRNA in the absence of chemical substance (yeast gene YAL018C): 1.3
The level of expressed mRNA in the presence of chemical substance/The level of expressed mRNA in the absence of chemical substance (yeast gene YAL049C, incubated two hours with substance): 1.6
The level of expressed mRNA in the presence of chemical substance/The level of expressed mRNA in the absence of chemical substance (yeast gene YAR031W): 3.3
The level of expressed mRNA in the presence of chemical substance/The level of expressed mRNA in the absence of chemical substance (yeast gene YAR047C): 1.4
The level of expressed mRNA in the presence of chemical substance/The level of expressed mRNA in the absence of chemical substance (yeast gene YAR064W): 1.1
The level of expressed mRNA in the presence of chemical substance/The level of expressed mRNA in the absence of chemical substance (yeast gene YBL048W): 2.7
The level of expressed mRNA in the presence of chemical substance/The level of expressed mRNA in the absence of chemical substance (yeast gene YBL049W): 3.9
The level of expressed mRNA in the presence of chemical substance/The level of expressed mRNA in the absence of chemical substance (yeast gene YBL107C): 2.6
The level of expressed mRNA in the presence of chemical substance/The level of expressed mRNA in the absence of chemical substance (yeast gene YBR012C): 2.1
The level of expressed mRNA in the presence of chemical substance/The level of expressed mRNA in the absence of chemical substance (yeast gene YBR062C): 2.8
The level of expressed mRNA in the presence of chemical substance/The level of expressed mRNA in the absence of chemical substance (yeast gene YBR124W): 0.9
The level of expressed mRNA in the presence of chemical substance/The level of expressed mRNA in the absence of chemical substance (yeast gene YBR287W): 3.4
The level of expressed mRNA in the presence of chemical substance/The level of expressed mRNA in the absence of chemical substance (yeast gene YCL056C): 1.3
The level of expressed mRNA in the presence of chemical substance/The level of expressed mRNA in the absence of chemical substance (yeast gene YCR007C): 1.5
The level of expressed mRNA in the presence of chemical substance/The level of expressed mRNA in the absence of chemical substance (yeast gene YCR013C): 3.9
The level of expressed mRNA in the presence of chemical substance/The level of expressed mRNA in the absence of chemical substance (yeast gene YDL027C): 3.2
The level of expressed mRNA in the presence of chemical substance/The level of expressed mRNA in the absence of chemical substance (yeast gene YDL046W): 1.5
The level of expressed mRNA in the presence of chemical substance/The level of expressed mRNA in the absence of chemical substance (yeast gene YDL110C): 2.7
The level of expressed mRNA in the presence of chemical substance/The level of expressed mRNA in the absence of chemical substance (yeast gene YDL169C): 3.7
The level of expressed mRNA in the presence of chemical substance/The level of expressed mRNA in the absence of chemical substance (yeast gene YDR090C): 0.8
The level of expressed mRNA in the presence of chemical substance/The level of expressed mRNA in the absence of chemical substance (yeast gene YDR128W): 1.1
The level of expressed mRNA in the presence of chemical substance/The level of expressed mRNA in the absence of chemical substance (yeast gene YDR133C): 0.1
The level of expressed mRNA in the presence of chemical substance/The level of expressed mRNA in the absence of chemical substance (yeast gene YDR210W): 2.3
The level of expressed mRNA in the presence of chemical substance/The level of expressed mRNA in the absence of chemical substance (yeast gene YDR250C): 1.2
The level of expressed mRNA in the presence of chemical substance/The level of expressed mRNA in the absence of chemical substance (yeast gene YDR366C): 0.8
The level of expressed mRNA in the presence of chemical substance/The level of expressed mRNA in the absence of chemical substance (yeast gene YDR435C): 2.5
The level of expressed mRNA in the presence of chemical substance/The level of expressed mRNA in the absence of chemical substance (yeast gene YDR476C): 2.8
The level of expressed mRNA in the presence of chemical substance/The level of expressed mRNA in the absence of chemical substance (yeast gene YER037W): 3.0
The level of expressed mRNA in the presence of chemical substance/The level of expressed mRNA in the absence of chemical substance (yeast gene YFL024C): 0.9
The level of expressed mRNA in the presence of chemical substance/The level of expressed mRNA in the absence of chemical substance (yeast gene YFR003C): 2.5
The level of expressed mRNA in the presence of chemical substance/The level of expressed mRNA in the absence of chemical substance (yeast gene YFR026C): 1.1
The level of expressed mRNA in the presence of chemical substance/The level of expressed mRNA in the absence of chemical substance (yeast gene YGR035C): 2.1
The level of expressed mRNA in the presence of chemical substance/The level of expressed mRNA in the absence of chemical substance (yeast gene YGR038W): 1.2
The level of expressed mRNA in the presence of chemical substance/The level of expressed mRNA in the absence of chemical substance (yeast gene YGR110W): 3.6
The level of expressed mRNA in the presence of chemical substance/The level of expressed mRNA in the absence of chemical substance (yeast gene YGR139W): 0.4
The level of expressed mRNA in the presence of chemical substance/The level of expressed mRNA in the absence of chemical substance (yeast gene YGR237C, incubated two hours with substance): 1.6
The level of expressed mRNA in the presence of chemical substance/The level of expressed mRNA in the absence of chemical substance (yeast gene YGR277C, incubated two hours with substance): 1.6
The level of expressed mRNA in the presence of chemical substance/The level of expressed mRNA in the absence of chemical substance (yeast gene YHL006C): 1.1
The level of expressed mRNA in the presence of chemical substance/The level of expressed mRNA in the absence of chemical substance (yeast gene YHR209W): 2.0
The level of expressed mRNA in the presence of chemical substance/The level of expressed mRNA in the absence of chemical substance (yeast gene YIL127C): 0.4
The level of expressed mRNA in the presence of chemical substance/The level of expressed mRNA in the absence of chemical substance (yeast gene YJL017W): 1.5
The level of expressed mRNA in the presence of chemical substance/The level of expressed mRNA in the absence of chemical substance (yeast gene YJL037W): 1.1
The level of expressed mRNA in the presence of chemical substance/The level of expressed mRNA in the absence of chemical substance (yeast gene YKL097C): 0.9
The level of expressed mRNA in the presence of chemical substance/The level of expressed mRNA in the absence of chemical substance (yeast gene YKL107W): 1.9
The level of expressed mRNA in the presence of chemical substance/The level of expressed mRNA in the absence of chemical substance (yeast gene YKR040C): 0.6
The level of expressed mRNA in the presence of chemical substance/The level of expressed mRNA in the absence of chemical substance (yeast gene YKR075C): 3.8
The level of expressed mRNA in the presence of chemical substance/The level of expressed mRNA in the absence of chemical substance (yeast gene YLR064W, incubated two hours with substance): 1.6
The level of expressed mRNA in the presence of chemical substance/The level of expressed mRNA in the absence of chemical substance (yeast gene YLR297W): 0.8
The level of expressed mRNA in the presence of chemical substance/The level of expressed mRNA in the absence of chemical substance (yeast gene YLR338W): 1.2
The level of expressed mRNA in the presence of chemical substance/The level of expressed mRNA in the absence of chemical substance (yeast gene YLR392C): 1.4
